Laboratory results from US11324724B2, “N-(2,2-difluoroethyl)-N-[(pyrimidinylamino)propanyl]arylcarboxamides” (Boehringer Ingelheim International GmbH, priority 2017, dated 2022).

What was measured:
[1] = tested on: human MDR1 P-gp; test: Assay D: efflux in MDCK cells transfected with the human MDR1 gene; type: in vitro ADME, canine; conditions: dog; MDCK-MDR1, pH 7.4, 37° C.; read-out: Assay D: MDCK efflux ratio (BA/AB)
Experimental: The MDCK assay provides information on the potential of a compound to pass the blood brain barrier. Permeability measurements across polarized, confluent MDCK-MDR1 cell monolayers grown on permeable filter supports are used as an in vitro absorption model: apparent permeability coefficients (PE) of the compounds across the MDCK-MDR1 cell monolayers are measured (pH 7.4, 37° C.) in apical-to-basal (AB) and basal-to-apical (BA) transport direction.
The AB permeability (PEAB) represents drug absorption from the blood into the brain and the BA permeability (PEBA) drug efflux from the brain back into the blood via both, passive permeability as well as active transport mechanisms mediated by efflux and uptake transporters that are expressed on the MDCK-MDR1 cells, predominantly by the overexpressed human MDR1 P-gp. Identical or similar permeabilities in both transport directions indicate passive permeation, vectorial permeability points to additional active transport mechanisms. Higher PEBA than PEAB (PEBA/PEAB>5) indicates the involvement of active efflux mediated by MDR1 P-gp, which might compromises the goal to achieve sufficient brain exposure. Therefore this assay provides valuable support for selection of compounds applicable for further in vivo testing. High permeability not limited by efflux at the blood brain barrier is a favourable characteristic for compounds that are to be used for drugs acting primarily in the CNS
D. Assessment of Efflux in Madin-Darby Canine Kidney (MDCK) Cells Transfected with the Human MDR1 Gene
Apparent permeability coefficients (PE) of the compounds across the MDCK-MDR1 cell monolayers are measured (pH 7.4, 37° C.) in apical-to-basal (AB) and basal-to-apical (BA) transport direction. AB permeability (PEAB) represents drug absorption from the blood into the brain and BA permeability (PEBA) drug efflux from the brain back into the blood via both passive permeability as well as active transport mechanisms mediated by efflux and uptake transporters that are expressed on the MDCK-MDR1 cells, predominantly by the overexpressed human MDR1 P-gp. The compounds are assigned to permeability/absorption classes by comparison of the AB permeabilities with the AB permeabilities of reference compounds with known in vitro permeability and oral absorption in the human. Identical or similar permeabilities in both transport directions indicate passive permeation, vectorial permeability points to additional active transport mechanisms. Higher PEBA than PEAB indicates the involvement of active efflux mediated by MDR1 P-gp. Active transport is concentration-dependently saturable.
MDCK-MDR1 cells (1-2×10 e5 cells/1 cm2 area) are seeded on filter inserts (Costar transwell polycarbonate or PET filters, 0.4 μm pore size) and cultured (DMEM) for 7 days. Subsequently, the MDR1 expression is boosted by culturing the cells with 5 mM sodium butyrate in full medium for 2 days. Compounds are dissolved in appropriate solvent (like DMSO, 1-20 mM stock solutions). Stock solutions are diluted with HTP-4 buffer (128.13 mM NaCl, 5.36 mM KCl, 1 mM MgSO4, 1.8 mM CaCl2, 4.17 mM NaHCO3, 1.19 mM Na2HPO4×7H2O, 0.41 mM NaH2PO4×H2O, 15 mM HEPES, 20 mM glucose, 0.25% BSA, pH 7.4) to prepare the transport solutions (0.1-300 μM compound, final DMSO<=0.5%). The transport solution (TL) is applied to the apical or basolateral donor side for measuring A-B or B-A permeability (3 filter replicates), respectively. The receiver side contains the same buffer as the donor side. Samples are collected at the start and end of experiment from the donor and at various time intervals for up to 2 hours also from the receiver side for concentration measurement by HPLC-MS/MS or scintillation counting. Sampled receiver volumes are replaced with fresh receiver solution.

[2] = Assay C: metabolic stability in human liver microsomes (Human MST); type: in vitro ADME; conditions: pH 7.6, pooled human liver microsomes, 37° C., read-out: Assay C: Human MST t1/2
Experimental: C. Assessment of Metabolic Stability in Human Liver Microsomes (Human MST)
The metabolic stability of the compounds according to the invention may be investigated as follows:
The metabolic degradation of the test compound is assayed at 37° C. with pooled human liver microsomes. The final incubation volume of 100 μL per time point contains TRIS buffer pH 7.6 at room temperature (0.1 M), MgCl2 (5 mM), microsomal protein (1 mg/mL) and the test compound at a final concentration of 1 μM. Following a short pre-incubation period at 37° C., the reactions are initiated by addition of beta-nicotinamide adenine dinucleotide phosphate, reduced form (NADPH, 1 mM), and terminated by transferring an aliquot into solvent after different time points. After centrifugation (10000 g, 5 min), an aliquot of the supernatant is assayed by LC-MS/MS for the amount of parent compound. The half-life (t1/2) is determined by the slope of the semi-logarithmic plot of the concentration-time profile.

[3] = molecular target: T1, OX2R (Homo sapiens, UniProt O43614); conditions: cited from earlier work
T1 sequence (O43614 1-444): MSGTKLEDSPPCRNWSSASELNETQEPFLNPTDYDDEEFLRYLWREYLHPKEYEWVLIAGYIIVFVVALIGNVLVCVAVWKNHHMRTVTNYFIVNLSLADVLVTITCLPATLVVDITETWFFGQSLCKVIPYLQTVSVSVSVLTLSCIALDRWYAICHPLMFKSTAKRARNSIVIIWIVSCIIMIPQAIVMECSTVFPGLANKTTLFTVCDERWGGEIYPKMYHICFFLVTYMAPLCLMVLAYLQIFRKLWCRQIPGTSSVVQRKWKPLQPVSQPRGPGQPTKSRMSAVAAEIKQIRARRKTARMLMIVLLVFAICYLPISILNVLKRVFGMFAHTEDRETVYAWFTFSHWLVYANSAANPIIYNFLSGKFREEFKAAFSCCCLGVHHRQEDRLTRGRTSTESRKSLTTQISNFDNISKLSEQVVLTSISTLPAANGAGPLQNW

[4] = molecular target: T2, human orexin 2 receptor (Homo sapiens, UniProt O43614); test: Assay B: in vitro testing of OX2R potency, OX2R IP1; type: cell-based; conditions: 0.5 nM Orexin A concentration
T2 construct: stably expressing the full-length human orexin 2 receptor; expressed in transfected cells; host or cells: CHO-K1 (CHO-K1/hOx2), co-expressing aequorin
T2 sequence (O43614 1-444): T1 sequence (O43614 1-444)
Excerpt: (§1) Activation of the orexin receptors expressed in cell lines results in an increase in intracellular IP3 concentration. IP1, a downstream metabolite of IP3, accumulates in cells following receptor activation and is stable in the presence of LiCl. Using Homogeneous Time-Resolved Fluorescence technology with Lumi4-Tb cryptate (commercially available from Cisbio Bioassay.) and a suitable fluorescence plate reader. This functional response is detectable and quantifiable as described in Trinquet et al. Anal. Biochem. 2006, 358, 126-135, Degorce et al. Curr. Chem. Genomics 2009, 3, 22-32. This technique is used to characterize pharmacological modification of the orexin receptors.
B. In Vitro Testing of OX2R Potency: OX2R IP1
IP1 measurements are performed in CHO-K1 cells stably expressing the full-length human orexin 2 receptor and the aequorin photoprotein. Cells are cultivated in Ham's nutrient mixture F12 medium with 10% fetal calf serum, in a 37° C., 95% humidity and 5% CO2 incubator. The CHO-K1/hOx2 cell mass is expanded to larger cell numbers. The cells are obtained as frozen cells in cryo-vials and stored until use at −150° C. The viability of the cells after thawing is >90%. In preparation for the assay, 24 hours before the assay, the cells are thawed at 37° C. and immediately diluted with cell culture medium. After centrifugation, the cell pellet is resuspended in medium and then distributed into the assay plates with a density of 5000 cells/25 μper well. The plates are incubated for one hour at room temperature to reduce edge effects before they are incubated for 24 hours at 37° C./5% CO2. Compounds are prepared by a 8-point serial dilution in DMSO and a final dilution step into assay buffer (HBSS with 20 mM HEPES, 0.1% BSA and 50 mM LiCl, pH 7.4) to ensure a final DMSO concentration of 1% in the assay. On the day of the assay, cells in the plate are washed twice with 60 μL assay buffer (20 μL buffer remained in the wells after washing), followed by adding 5 μL per well of compounds diluted in assay buffer. After 15 minutes of incubation at room temperature 5 μL per well of Orexin A peptide (final concentration: 0.5 nM) dissolved in assay buffer is added to the assay plate. The assay plate is incubated for 60 minutes at 37° C. Then 5 μl per well of Anti-IP1-Cryptate Tb solution and 5 μl per well of IP1-d2 dilution are added to all well of the plate and the plate is incubated for a further 60 minutes light protected at room temperature. The emission at 615 nm and 665 nm (Excitation wavelength: 320 nm) are measured using an EnVision reader (PerkinElmer). The ratio between the emission at 665 nm and 615 is calculated by the reader.
(§2) 8-point four parametric non-linear curve fitting and determination of IC50 values and Hill slopes is performed using a regular analysis software e.g. AssayExplorer (Accelrys). In order to establish an agonist concentration independent parameter, Kb values are calculated using the following equation: IC50/((2+(A/EC50)^n)^1/n−1) (with A=concentration agonist, EC50=EC50 agonist, n=Hill slope agonist) (see P. Leff, I. G. Dougall, Trends Pharmacol. Sci. 1993, 14(4),110-112).

[5] = molecular target: T3, human Orexin 1 receptor (Homo sapiens, UniProt O43613); test: Assay A: in vitro testing of OX1R potency, OX1R IP1; type: cell-based; conditions: for Kb: 0.5 nM Orexin A concentration; for OX2R Kb/OX1R Kb: selectivity ratio of Assay B and Assay A Kb
T3 construct: stably expressing the full-length human Orexin 1 receptor; expressed in transfected cells; host or cells: CHO-K1 (CHO-K1/hOx1), co-expressing aequorin
T3 sequence (O43613 1-425): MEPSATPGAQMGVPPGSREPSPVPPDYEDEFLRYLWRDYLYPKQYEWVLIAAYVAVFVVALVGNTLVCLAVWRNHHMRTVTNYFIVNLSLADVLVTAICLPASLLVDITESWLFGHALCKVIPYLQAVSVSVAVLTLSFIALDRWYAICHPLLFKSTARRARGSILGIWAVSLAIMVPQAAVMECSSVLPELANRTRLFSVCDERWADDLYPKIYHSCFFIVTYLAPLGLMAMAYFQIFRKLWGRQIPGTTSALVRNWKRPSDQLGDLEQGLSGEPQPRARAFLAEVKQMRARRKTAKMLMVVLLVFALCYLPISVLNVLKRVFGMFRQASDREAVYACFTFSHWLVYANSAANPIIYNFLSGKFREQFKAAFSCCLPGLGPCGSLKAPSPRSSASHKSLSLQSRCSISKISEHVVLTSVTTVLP
Excerpt: as §1
A. In Vitro Testing of OX1R Potency: OX1R IP1
IP1 measurements are performed in CHO-K1 cells stably expressing the full-length human Orexin 1 receptor and the aequorin photoprotein. Cells are cultivated in Ham's nutrient mixture F12 medium with 10% fetal calf serum, in a 37° C., 95% humidity and 5% CO2 incubator. The CHO-K1/hOx1 cell mass is expanded to larger cell numbers. The cells are obtained as frozen cells in cryo-vials and stored until use at −150° C. The viability of the cells after thawing is >90%. In preparation for the assay, 24 hours before the assay, the cells are thawed at 37° C. and immediately diluted with cell culture medium. After centrifugation, the cell pellet is re-suspended in medium and then distributed into the assay plates with a density of 10000 cells/25 μL per well. The plates are incubated for one hour at room temperature to reduce edge effects before they are incubated for 24 hours at 37° C./5% CO2. Compounds are prepared by an 8-point serial dilution in DMSO and a final dilution step into assay buffer (HBSS with 20 mM HEPES, 0.1% BSA and 50 mM LiCl, pH 7.4) to ensure a final DMSO concentration of 1% in the assay.
On the day of the assay, cells in the plate are washed twice with 60 μL assay buffer (20 μL buffer remained in the wells after washing), followed by adding 5 μL per well of compounds diluted in assay buffer. After 15 minutes of incubation at room temperature 5 μL per well of Orexin A peptide (final concentration: 0.5 nM, and/or 50 nM) dissolved in assay buffer is added to the assay plate. The assay plate is incubated for 60 minutes at 37° C. Then 5 μl per well of Anti-IP1-Cryptate Tb solution and 5 μl per well of IP1-d2 dilution are added and the plate is incubated for a further 60 minutes light protected at room temperature. The emissions at 615 nm and 665 nm (Excitation wavelength: 320 nm) are measured using an EnVision reader (PerkinElmer). The ratio between the emission at 665 nm and 615 is calculated by the reader.
as §2

| Compound | efflux ratio [1] | half-life at 1 μM [2] [h] | OX2R pIC50 ([3]; as described in WO2016/034882, Table 3) | IC50 ([3]; corresponds to pIC50 of WO2016/034882, Table 3) [nM] | Kb [4] [nM] | Kb [5] [nM] | OX2R Kb/OX1R Kb [5] |
| --- | --- | --- | --- | --- | --- | --- | --- |
| CC[C@@H](CNc1ncc(C(F)(F)F)cn1)N(C)C(=O)c1nc(C)ccc1-c1ncccn1 [Ex 84 in WO2016/ 034882, reference compound] | < 3 | – | – | – | – | – | – |
| CC[C@@H](CNc1ncc(C(F)(F)F)cn1)N(C)C(=O)c1c(F)cccc1-n1nccn1 [Ex 91 in WO2016/ 034882] | < 3 | > 2.17 | < 5.1 | ≥ 7950 | – | – | – |
| C[C@@H](CNc1ncc(C(F)(F)F)cn1)N(CC(F)F)C(=O)c1cc(F)cc(F)c1-n1nccn1 [Example 1] | < 3 | > 2.17 | – | – | 251 | 1.17 | 214 |
| C[C@@H](CNc1ncc(C(F)(F)F)cn1)N(CC(F)F)C(=O)c1cccc(F)c1-n1nccn1 [Example 2] | < 3 | > 2.17 | – | – | 87.1 | 0.63 | 138 |
| C[C@@H](CNc1ncc(C(F)(F)F)cn1)N(CC(F)F)C(=O)c1cccc(F)c1-c1ncccn1 [Example 3] | < 3 | > 2.17 | – | – | 108 | 0.19 | 568 |
| C[C@@H](CNc1ncc(C(F)(F)F)cn1)N(CC(F)F)C(=O)c1cc(F)ccc1-c1ncccn1 [Example 4] | < 3 | > 2.17 | – | – | 70.8 | 0.42 | 169 |
| C[C@@H](CNc1ncc(C(F)(F)F)cn1)N(CC(F)F)C(=O)c1c(F)cccc1-c1ncccn1 [Example 5] | < 3 | > 2.17 | – | – | 143 | 0.67 | 213 |
